Here are results for one compound from US20170306409A1, “CANCER PATIENT SELECTION FOR ADMINISTRATION OF WNT SIGNALING INHIBITORS USING RNF43 MUTATION STATUS” (NOVARTIS AG, priority 2012, published 2017).

This assay relates to RNF43 mutant cell lines. Nature of the assay: EdU proliferation assay. The format is cell-based, human. The following applies: 1 μM LGK974, 3 days. Here is the method: Further, LGK974 induced the expression of differentiation marker MUC2, MUC5A/C in RNF43 mutant cells. LGK974 blocked EDU incorporation in RNF43 mutant cell lines, so Wnt inhibition in these cells leads to cell cycle arrest. LGK974-induced growth inhibition and cellular differentiation of RNF43 mutant cells are also obvious using Ki67 staining (anti-Ki67 (SP6) from Vector Laboratories, Burlingame, Calif., USA 94010) and Alcian Blue staining.
For the EdU proliferation assay, cells were plated in growth medium in 96 well plate at a density of 6000-12,000 cells per well, and treated with DMSO or 1 μM LGK974. After 3 days, the cells were treated with fresh growth medium containing 20 μM EdU, which was included in the Click-iT EdU Alexa Fluor 488 HCS assay kit (Invitrogen), and the plate was incubated for 2 hr at 37° C. in a humidified atmosphere containing 5% CO2. Cells were fixed with final 4% paraformaldehyde for 30 min, washed with PBS, permeabilized, and stained with 0.75% TritonX-100 and 50 μg/ml Hoechst in PBS for 30 min. After wash, the cells were proceeded EdU detection according to the instruction of Click-iT EdU assay kit. Triplet wells were performed for each condition.

As for `Cc1cc(-c2ncc(CC(=O)Nc3ccc(-c4cnccn4)cn3)cc2C)ccn1` [LGK974, 2-[5-methyl-6-(2-methylpyridin-4-yl)pyridin-3-yl]-N-[5-(pyrazin-2-yl)pyridin-2-yl]acetamide], the EDU incorporation entry is recorded as “blocked”.
